Each molecule was assayed against Glucagon receptor (Homo sapiens, UniProt P47871) (assay: Antagonist activity at human glucagon receptor).
Sequence of Glucagon receptor (P47871 whole entry): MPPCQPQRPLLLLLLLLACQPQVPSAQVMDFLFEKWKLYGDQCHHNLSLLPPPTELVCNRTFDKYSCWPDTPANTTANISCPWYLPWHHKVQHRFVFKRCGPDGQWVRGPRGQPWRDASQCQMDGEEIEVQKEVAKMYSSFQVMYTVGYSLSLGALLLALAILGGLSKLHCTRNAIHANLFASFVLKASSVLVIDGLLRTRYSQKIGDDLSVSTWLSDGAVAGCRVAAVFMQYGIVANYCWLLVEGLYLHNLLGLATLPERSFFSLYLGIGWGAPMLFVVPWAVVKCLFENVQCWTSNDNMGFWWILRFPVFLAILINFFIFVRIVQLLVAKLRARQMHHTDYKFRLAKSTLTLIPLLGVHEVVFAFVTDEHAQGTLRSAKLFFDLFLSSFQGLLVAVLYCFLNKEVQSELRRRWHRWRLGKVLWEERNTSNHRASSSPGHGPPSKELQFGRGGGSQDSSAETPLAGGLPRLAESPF

Structure (SMILES) | IC50
COc1ccc(-c2cc(-c3ccc(Cl)cc3)[nH]c2-c2ccncc2)cc1 | 1.15 µM
CCCOc1ccccc1-c1cc(-c2ccc(Cl)cc2)[nH]c1-c1ccncc1 | 2.84 µM
Fc1ccc(-c2cc(-c3ccc(F)cc3)c(-c3ccncc3)[nH]2)cc1 | 0.34 µM
COc1cccc(-c2cc(-c3ccc(Cl)cc3)[nH]c2-c2ccncc2)c1 | 0.421 µM
C=CCOc1ccccc1-c1cc(-c2ccc(Cl)cc2)[nH]c1-c1ccncc1 | 4.74 µM
Fc1ccc(-c2cc(-c3ccccc3)[nH]c2-c2ccncc2)cc1 | 0.802 µM
N#Cc1ccc(-c2cc(-c3ccc(F)cc3)c(-c3ccncc3)[nH]2)cc1 | 0.05 µM
Nc1ccc(-c2cc(-c3ccc(F)cc3)c(-c3ccncc3)[nH]2)cc1 | 0.19 µM
Clc1ccc(-c2cc(-c3ccc(Br)cc3)c(-c3ccncc3)[nH]2)cc1 | 0.301 µM
CCc1ccc(-c2cc(-c3ccc(F)cc3)c(-c3ccncc3)[nH]2)cc1 | 1.36 µM
Fc1ccc(-c2cc(-c3cccc(Cl)c3)[nH]c2-c2ccncc2)cc1 | 0.421 µM
Cc1ccc(-c2cc(-c3ccc(F)cc3)c(-c3ccncc3)[nH]2)cc1 | 1.69 µM
Fc1ccc(-c2cc[nH]c2-c2ccncc2)cc1 | 0.16 µM
COc1ccccc1-c1cc(-c2ccc(Cl)cc2)[nH]c1-c1ccncc1 | 2.65 µM
COc1ccc(-c2cc(-c3ccc(F)cc3)c(-c3ccncc3)[nH]2)cc1 | 2.81 µM
Clc1ccc(-c2cc(-c3ccc(Cl)cc3)c(-c3ccncc3)[nH]2)cc1 | 0.16 µM
O=[N+]([O-])c1ccc(-c2cc(-c3ccc(F)cc3)c(-c3ccncc3)[nH]2)cc1 | 0.05 µM

Structure (SMILES) | IC50
Clc1ccc(-c2cc(-c3ccccc3)c(-c3ccncc3)[nH]2)cc1 | 0.21 µM
Cc1cc(-c2ccc(F)cc2)c(-c2ccncc2)[nH]1 | 0.321 µM
Fc1ccc(-c2cc(-c3ccc(Cl)cc3Cl)[nH]c2-c2ccncc2)cc1 | 0.421 µM
CCOC(=O)c1ccc(-c2cc(-c3ccc(F)cc3)c(-c3ccncc3)[nH]2)cc1 | 0.26 µM
C[S+]([O-])c1ccc(C2=NC(c3ccncc3)=C(c3ccc(F)cc3)C2)cc1 (stereo not drawn) | 0.671 µM
CSc1ccc(C2=NC(c3ccncc3)=C(c3ccc(F)cc3)C2)cc1 | 1.23 µM
Fc1ccc(-c2cc(-c3ccc(Cl)cc3)[nH]c2-c2ccncc2)cc1 | 1.4 µM
CCOc1ccccc1-c1cc(-c2ccc(Cl)cc2)[nH]c1-c1ccncc1 | 14.2 µM
CC(C)COc1ccccc1-c1cc(-c2ccc(Cl)cc2)[nH]c1-c1ccncc1 | 3.77 µM
Fc1ccc(-c2cc(C3CCCCC3)[nH]c2-c2ccncc2)cc1 | 0.18 µM
Clc1ccc(-c2cc(-c3cccc(Br)c3)c(-c3ccncc3)[nH]2)cc1 | 0.0802 µM
CCCOc1ccc(Br)cc1-c1cc(-c2ccc(Cl)cc2)[nH]c1-c1ccncc1 | 1.44 µM
O=C(O)c1ccc(-c2cc(-c3ccc(F)cc3)c(-c3ccncc3)[nH]2)cc1 | 0.0902 µM
Clc1ccc(-c2cc(-c3ccccc3Br)c(-c3ccncc3)[nH]2)cc1 | 1 µM
C[S+]([O-])c1ccc(-c2cc(-c3ccncc3)c(-c3ccc(F)cc3)[nH]2)cc1 (stereo not drawn) | 0.00531 µM
CSc1ccc(-c2cc(-c3ccncc3)c(-c3ccc(F)cc3)[nH]2)cc1 | 0.0441 µM

— ChEMBL document CHEMBL2434841, “Computational neural network analysis of the affinity of 2-pyridyl-3,5-diaryl pyrroles analogs for the human glucagon receptor using density functional theory” (Med Chem Res, 2013)
